In DBAASP one finds MIC data, which are given here for 7 compounds.

Some test systems named below: Cladosporium herbarum; Alternaria alternata; Botrytis cinerea; Candida krusei ATCC 6258; Escherichia coli BL21; Staphylococcus aureus; Escherichia coli ESBL; Candida albicans SC5314; Bacillus subtilis 168; Proteus vulgaris; Escherichia coli B; Enterobacter cloacae; Salmonella typhimurium; Bacillus megaterium; Klebsiella pneumoniae.
What all share (assay): ≥ marks a high value that may be exact or a test limit, other limits are often not marked, values filed in µg/mL are converted to µM
Experiment [1] relates to Penicillium expansum EPS 26.
Experiment [2] has as its system Rhizopus stolonifer CECT 2344.
Experiment [3] relates to Aspergillus niger CECT 2694.
Experiment [4] has as its system Fusarium oxysporum f. sp. lycopersici ATCC 201829.
The test system of experiment [5] is Trichosporon beigelii KCTC 7707.
Experiment [6] relates to Saccharomyces cerevisiae KCTC 7296.
Experiment [7] relates to Pseudomonas aeruginosa KCTC 1637.
The subject of experiment [8] is Staphylococcus epidermidis KCTC 3096.
Experiment [9] deals with Bacillus subtilis KCTC 1918.
Experiment [10] concerns Candida albicans TIMM 1768.
The subject of experiment [11] is Salmonella typhimurium KCTC 1926.
The subject of experiment [12] is Clavibacter michiganensis subsp. michiganensis DSM 46294.
The subject of experiment [13] is Pseudomonas syringae pv. syringae DSM 10604.
In experiment [14] the test system is Xanthomonas vesicatoria DSM 50861.
In experiment [15] the test system is Pseudomonas corrugata DSM 7228.
The test system of experiment [16] is Pectobacterium carotovorum subsp. carotovorum DSM 30168.
Experiment [17] relates to Pseudomonas syringae pv. tomato DC3000.
Experiment [18] concerns Streptococcus pyogenes KCTC 3096.
Experiment [19] relates to Escherichia coli KCTC 1682.
Experiment [20] concerns Staphylococcus aureus KCTC 1621.
Experiment [21] relates to Candida tropicalis ATCC 750.
The subject of experiment [22] is Cryptococcus neoformans ATCC 208821.
The subject of experiment [23] is Candida parapsilosis ATCC 22019.
For experiment [24], the system named is Bacillus megaterium KCTC 1096.
Experiment [25] relates to Salmonella enterica subsp. enterica serovar Enteritidis.
Experiment [26] concerns Staphylococcus haemolyticus.

In brackets after ≈: the same amount, converted by molar mass. Where only a bound is given, the exact number is not on record here.

As for `CC[C@H](C)[C@H](NC(=O)[C@H](CCCCN)NC(=O)[C@H](CCCCN)NC(=O)[C@H](Cc1ccccc1)NC(=O)[C@H](CC(C)C)NC(=O)[C@H](CCCCN)NC(=O)[C@@H](N)CCCCN)C(=O)N[C@@H](CC(C)C)C(=O)N[C@@H](CCCCN)C(=O)N[C@@H](CCCCN)C(=O)N[C@@H](CC(C)C)C(N)=O` [KKLFKKILKKL], the MIC in experiment [1] is at least 100 µM; in [2], at least 70.7 µM; in experiment [3], 22.4 µM (≈ 31 µg/mL); in [4], 0.849 µM (≈ 1.18 µg/mL).

For the compound `CC(C)C[C@H](NC(=O)[C@H](CCCCN)NC(=O)[C@H](CC(C)C)NC(=O)[C@H](CCCCN)NC(=O)[C@H](CC(C)C)NC(=O)[C@@H]1CCCN1C(=O)[C@H](CCCCN)NC(=O)[C@H](CCCCN)NC(=O)[C@H](CC(C)C)NC(=O)[C@H](CC(C)C)NC(=O)[C@@H](N)CCCCN)C(N)=O` [KLLKKPLKLKL], the MIC was 6.3 µM (≈ 8.32 µg/mL) in [5]; 25 µM (≈ 33 µg/mL) in experiment [6]; 6.3 µM (≈ 8.32 µg/mL) in [7]; 6.3 µM (≈ 8.32 µg/mL) in experiment [8]; 12.5 µM (≈ 16.5 µg/mL) in experiment [9]; 25 µM (≈ 33 µg/mL) in experiment [10]. In [11], this compound returned an MIC of 0.8 µM (≈ 1.06 µg/mL).

For `CC[C@H](C)[C@H](NC(=O)[C@@H](NC(=O)CNC(=O)[C@H](C)NC(=O)[C@H](CCSC)NC(=O)[C@@H](NC(=O)CNC(=O)[C@H](Cc1ccccc1)NC(=O)[C@@H](NC(=O)[C@H](CC(C)C)NC(=O)[C@@H](NC(=O)[C@H](CC(C)C)NC(=O)[C@H](CCCCN)NC(=O)[C@H](CCCN=C(N)N)NC(=O)[C@@H](N)CCCCN)[C@@H](C)O)C(C)C)C(C)C)C(C)C)C(=O)NCC(=O)N[C@H](C(=O)N[C@@H](CCCCN)C(=O)N[C@@H](CCCCN)C(=O)N[C@@H](CCCN=C(N)N)C(N)=O)[C@@H](C)O` [KRKLTLVFGVMAGVIGTKKR], the MIC is 9.08 µM (≈ 20 µg/mL) in experiment [12]; 18.2 µM (≈ 40 µg/mL) in experiment [13]; at least 45.4 µM in the experiment on Cladosporium herbarum; 18.2 µM (≈ 40 µg/mL) in experiment [14]; 18.2 µM (≈ 40 µg/mL) in [15]; at least 45.4 µM against Alternaria alternata. In addition, the figures for the minimum inhibitory concentration (MIC) (in [16]; in the experiment with Botrytis cinerea; in experiment [17]) were 18.2 µM (≈ 40 µg/mL), at least 45.4 µM and 18.2 µM (≈ 40 µg/mL), respectively.

For `CC[C@H](C)[C@H](NC(=O)[C@H](CCCCN)NC(=O)[C@H](CCCCN)NC(=O)[C@H](Cc1ccccc1)NC(=O)[C@H](CC(C)C)NC(=O)[C@H](CCCCN)NC(=O)[C@H](Cc1c[nH]c2ccccc12)NC(=O)[C@@H](N)CCCCN)C(=O)NCC(=O)N1CCC[C@H]1C(=O)NCC(=O)N[C@@H](CCCCN)C(=O)N[C@@H](Cc1ccccc1)C(=O)N[C@@H](CC(C)C)C(=O)N[C@@H](Cc1cnc[nH]1)C(=O)N[C@@H](CO)C(=O)N[C@@H](C)C(=O)N[C@@H](CCCCN)C(=O)N[C@@H](CCCCN)C(=O)N[C@@H](Cc1ccccc1)C(N)=O` [KWKLFKKIGPGKFLHSAKKF], the minimal inhibitory concentration (MIC) stood at 0.78 µM (≈ 1.86 µg/mL) in experiment [18]; 3.12 µM (≈ 7.46 µg/mL) in [19]; 3.12 µM (≈ 7.46 µg/mL) in experiment [20]; 0.78 µM (≈ 1.86 µg/mL) in experiment [7]; 0.78 µM (≈ 1.86 µg/mL) in [9]; 0.78 µM (≈ 1.86 µg/mL) in experiment [11].

Regarding `CC[C@H](C)[C@H](N)C(=O)N[C@H](C(=O)N[C@@H](CCCCN)C(=O)N[C@@H](CCCCN)C(=O)N[C@H](C(=O)N[C@H](C(=O)N[C@@H](CCCCN)C(=O)N[C@@H](CCCCN)C(=O)N[C@H](C(=O)N[C@H](C(=O)N[C@@H](CCCCN)C(=O)N[C@@H](CCCCN)C(N)=O)[C@@H](C)CC)[C@@H](C)CC)[C@@H](C)CC)[C@@H](C)CC)[C@@H](C)CC` [IIKKIIKKIIKK], the minimal inhibitory concentration (MIC) was at least 100 µM in the experiment with Candida krusei ATCC 6258; at least 100 µM in experiment [21]; 30 µM (≈ 44 µg/mL) against Escherichia coli BL21; 30 µM (≈ 44 µg/mL) with Staphylococcus aureus; 20 µM (≈ 29.3 µg/mL) against Escherichia coli ESBL; at least 800 µM against Candida albicans SC5314. For the same compound, the minimum inhibitory concentration (MIC) is 25 µM (≈ 36.6 µg/mL) in [22], at least 1600 µM in experiment [23] and 5 µM (≈ 7.33 µg/mL) against Bacillus subtilis 168.

For the compound `CC[C@H](C)[C@H](NC(=O)[C@H](CCCCN)NC(=O)[C@H](CCCCN)NC(=O)[C@H](Cc1ccccc1)NC(=O)[C@H](CC(C)C)NC(=O)[C@H](CCCCN)NC(=O)[C@H](Cc1c[nH]c2ccccc12)NC(=O)[C@@H](N)CCCCN)C(=O)N1CCC[C@H]1C(=O)N[C@@H](Cc1ccccc1)C(=O)N[C@@H](CC(C)C)C(=O)N[C@@H](Cc1cnc[nH]1)C(=O)N[C@@H](CC(C)C)C(=O)N[C@@H](C)C(=O)N[C@@H](CCCCN)C(=O)N[C@@H](CCCCN)C(=O)N[C@@H](Cc1ccccc1)C(N)=O` [KWKLFKKIPFLHLAKKF], the minimal inhibitory concentration (MIC) in experiment [19] worked out at 6.25 µM (≈ 13.6 µg/mL); in experiment [20] it was 3.12 µM (≈ 6.79 µg/mL); in experiment [7], 6.25 µM (≈ 13.6 µg/mL); in experiment [9], 0.78 µM (≈ 1.69 µg/mL); against Proteus vulgaris, 1.56 µM (≈ 3.39 µg/mL); in experiment [24], 1.56 µM (≈ 3.39 µg/mL).

Consider `CC[C@H](C)[C@H](NC(=O)[C@@H](NC(=O)[C@@H]1CCCN1C(=O)[C@@H](NC(=O)[C@@H](NC(=O)[C@H](CCCN=C(N)N)NC(=O)[C@@H]1CCCN1C(=O)[C@@H](NC(=O)[C@@H](NC(=O)[C@H](Cc1cnc[nH]1)NC(=O)[C@H](CCCCN)NC(=O)[C@H](C)NC(=O)[C@@H](NC(=O)[C@H](CO)NC(=O)CNC(=O)[C@H](CC(C)C)NC(=O)[C@@H](NC(=O)[C@H](CO)NC(=O)[C@H](Cc1ccccc1)NC(=O)[C@H](CC(C)C)NC(=O)CN)C(C)C)C(C)C)C(C)C)C(C)C)C(C)C)C(C)C)C(C)C)C(=O)N[C@@H](C)C(=O)N[C@@H](CCC(=O)O)C(=O)N[C@@H](Cc1cnc[nH]1)C(=O)N[C@@H](CC(C)C)C(N)=O` [GLFSVLGSVAKHVVPRVVPVIAEHL], for which the MIC in the experiment with Escherichia coli B was 25 µM (≈ 65.6 µg/mL); in the experiment on Staphylococcus aureus it was above 100 µM; against Enterobacter cloacae, at least 50 µM; in experiment [25], at least 100 µM; in the experiment on Salmonella typhimurium, at least 100 µM; in experiment [26] it was at least 50 µM. Moreover, the MIC is at least 100 µM against Bacillus megaterium and 25 µM (≈ 65.6 µg/mL) in the experiment with Klebsiella pneumoniae.
